# Assay results taken from US8142764B2, “Synthetic biofilm-inhibiting peptides” (priority 2008, dated 2012).
# “Also recorded” adds a separate entry of the source. Where no end group is shown, it is not given here.
# Assays:
# [1] = system: P. gingivalis/S. gordonii biofilm; experiment: Inhibition of P. gingivalis adherence and biofilm formation on S. gordonii (open flow cell, confocal microcolony count); type: cell-based, Porphyromonas gingivalis; details: for inhibition of biofilm formation: peptide 3.38 μM
# Procedure: P. gingivalis adherence and biofilm formation. The adherence of intact P. gingivalis to S. gordonii cells and the subsequent formation of biofilms was carried out using an open flow system essentially as previously described by Amorin Daep et al. Infect Immun 74:5756-62 (2006) and Lamont et al. Microbiology 148:1627-36 (2002). The flow reactor comprised a Manostat Carter 4/8 cassette peristaltic pump (Fisher Scientific, Suwanee, Ga.) using 0.89 millimeter platinum-cured silicone tubing (Fisher Scientific, Suwanee, Ga.) and a BST FC 71 flow cell (Biosurface Technologies, Corp, Bozeman, Mont.). A single surface of a 15×40 mm cover glass (Fisher Scientific, Suwanee, Ga.) was coated with 0.22 μm filter sterilized saliva and incubated at 37° C. for 30 minutes. The saliva coated coverglass was then washed with sterile 1×PBS at a flow rate of 6 ml per hour for 30 minutes to remove unbound salivary constituents.
# S. gordonii DL-1 cells were harvested by centrifugation at 4000 rpm at 4° C. for 15 minutes and suspended in 25 ml of sterile 1×PBS. S. gordonii cells were labeled with 20 μl of hexidium iodide (1.6 mg/ml, Molecular Probes, Eugene, Oreg.) at 25° C. for 30 minutes in the dark and washed with PBS. Adherence of streptococci to the saliva coated cover glass was carried out by delivering S. gordonii cells to the flow chamber at a flow rate of 6 ml per hour for approximately 2 hours. Following inoculation with S. gordonii, the flow cell was washed with sterile 1×PBS for 30 minutes at 6 ml per hour to remove non-adherent bacteria from the cover glass.
# P. gingivalis ATCC 33277 cells were harvested by centrifugation at 4000 rpm at 4° C. for 45 minutes, suspended in 25 ml of sterile 1×PBS, and introduced into the flow cell at a flow rate of 6 ml per hour for 2 hours at 25° C. to allow P. gingivalis to adhere and accumulate on the streptococcal substrate. Flow cells were subsequently washed with sterile 1×PBS to remove non-adherent P. gingivalis cells. To visualize adherent P. gingivalis, rabbit anti-P. gingivalis 33277 polyclonal antibody diluted 3:5000 in 5 ml of sterile 1×PBS was flowed into the cell at a rate of 6 ml per hour. The flow cell was then washed with sterile 1×PBS for 1 hour, reacted with anti-rabbit IgG fluorescein isothiocyanate (FITC) conjugate (Sigma, St. Louis, Mo.) in sterile 1×PBS (1:5000) for 1 hour at 6 ml per hour, and received a final wash with sterile 1×PBS as above. Under these conditions, the streptococci bound to the saliva coated coverglass as a non-confluent layer comprising single cells and small aggregates. P. gingivalis subsequently adhered to and formed distinct microcolonies on the immobilized streptococci. The microcolonies were visualized and quantified by confocal microscopy as described below.
# Confocal microscopy and analysis of P. gingivalis biofilms. P. gingivalis-S. gordonii biofilms were visualized using an Olympus FluoView 500 confocal laser scanning microscope (Olympus, Pittsburgh, Pa.) under 600× magnification using an Argon laser for visualization of FITC labeling and the HeNe-G laser to visualize hexidium iodide labeled streptococci. The number and depth of FITC-labeled P. gingivalis microcolonies was determined from 30 to 60 randomly chosen frames using the FluoView software package provided by Olympus. Microcolony depth was determined by performing Z-plane scans from 0 μm to 30 μm above the coverglass surface. P. gingivalis microcolonies that formed on S. gordonii in the absence of peptide inhibitor ranged from 7 to 16 μm in depth under the experimental conditions used.
# Inhibition of P. gingivalis adherence and bioflim formation. […] The P. gingivalis-peptide suspension was then introduced into the flow cell for 2 hours at a flow rate of 6 ml per hour as described above and P. gingivalis microcolonies were analyzed by confocal microscopy. Data was analyzed using GraphPad InStat3 (GraphPad Software Co.).
# [2] = system: proteolytic activity of P. gingivalis; type: cell-based, Porphyromonas gingivalis; details: intact cells pre-treated with inhibitor
# Description: Inhibition of protease activity. The proteolytic activity of P. gingivalis was inhibited using a bacterial protease inhibitor cocktail (Sigma, St. Louis, Mo.) containing the following inhibitors: 4-(2-Aminoethyl)benzenesulfonyl fluoride hydrochloride (AEBSF), N-(trans-epoxysuccinyl)-L-leucine 4 guanidinobutylamide (E-64), sodium ethylenediaminetetra-acetate (EDTA), bestatin and pepstatin A. The inhibitor cocktail was suspended in dimethylsulfoxide (DMSO) (Sigma, St. Louis, Mo.) at the concentration recommended by the manufacturer.
# [3] = Circular dichroism (CD) spectroscopy, K2D secondary structure estimate; type: physicochemical; details: 1.4 mM peptide in phosphate buffer
# Procedure: Circular dichroism (CD) spectroscopy. CD experiments were carried out at 25° C. using Jasco J-810 spectropolarimeter (Jasco, Easton, Md.). A 40 μl sample of peptide at a concentration of 1.4 mM in filter sterilized 0.1 M phosphate buffer (pH=7.2) was analyzed in a 0.01 cm quartz cuvette (Starna Cells, Inc., Atascadero, Calif.) using the following parameters: sensitivity=100 mdeg, start wavelength=340 nm, end wavelength=180 nm, continuous scanning mode at 200 nm/minute, response=1 second, and bandwidth=1 nm. Nitrogen was flushed into the system at a rate of […] during each experiment. A total of 10 scans were accumulated and averaged and the appropriate blanks were subtracted from the spectra. The resulting spectra were expressed in molar ellipticity. Normalized CD data were analyzed using K2D software (on the world-wide web at embl-heidelberg.de/˜andrade/k2d.html)) to estimate α-helical, β-sheet, and random coil content.
# Mfa1 = Mfa1 (Porphyromonas gingivalis, UniProt B2RHG1); details: read-out: dissociation constant of the BAR-Mfa1 interaction; previously calculated; cited from earlier work
# Chain of Mfa1 (B2RHG1 50-563): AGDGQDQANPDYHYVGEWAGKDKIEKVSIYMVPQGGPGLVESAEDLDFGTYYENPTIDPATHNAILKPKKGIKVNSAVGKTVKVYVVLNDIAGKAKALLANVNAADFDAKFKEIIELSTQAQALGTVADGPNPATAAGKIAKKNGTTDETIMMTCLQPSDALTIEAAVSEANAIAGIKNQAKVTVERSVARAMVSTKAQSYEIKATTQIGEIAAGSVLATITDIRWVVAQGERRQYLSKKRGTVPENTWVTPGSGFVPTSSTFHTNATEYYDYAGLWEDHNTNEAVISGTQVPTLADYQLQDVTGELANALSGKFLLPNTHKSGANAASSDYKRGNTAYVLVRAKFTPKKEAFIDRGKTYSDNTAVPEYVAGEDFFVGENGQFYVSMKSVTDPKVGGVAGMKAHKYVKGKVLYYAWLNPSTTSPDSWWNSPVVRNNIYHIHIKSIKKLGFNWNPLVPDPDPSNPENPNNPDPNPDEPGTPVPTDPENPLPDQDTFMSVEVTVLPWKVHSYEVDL
# [4] = system: proteases produced by P. gingivalis; experiment: Proteolytic degradation of BAR by P. gingivalis cells, culture supernatant or extracts (tricine gel, densitometry); type: in vitro ADME, Porphyromonas gingivalis
# Procedure: Proteolytic degradation of BAR by P. gingivalis. One milliliter of mid-exponential phase cultures of P. gingivalis SMF, P. gingivalis KDP128, P. gingivalis KDP129, or P. gingivalis E8 was centrifuged at 8000 rpm for 5 minutes at 4° C. The bacterial pellet was washed 3 times with 1 ml of sterile 1×PBS (100 mM sodium phosphate, pH 7.4, 150 mM NaCl). […] For some experiments, digital images of the stained gels were obtained using Epson Stylus CX3810 flatbed scanner (Espson America, Inc., Long Beach, Calif.) and analyzed by densitometry using ImageJ software (found on the world-wide-web at rsbweb.nih.gov/ij/).
# [5] = system: P. gingivalis/S. gordonii biofilm; details: 0.3 μM
# Procedure: P. gingivalis biofilm formation with S. gordonii. The formation of dual species P. gingivalis/S. gordonii biofilms was carried out essentially as previously described by Lamont et al (2002. Microbiology 148:1627-36.) and Daep et al. (Immun 74:5756-62 (2006); Infect Immun 76:3273-80 (2008)). The bacterial biofilms were cultured using a Manostat Carter 4/8 cassette peristaltic pump (Fisher Scientific, Suwanee, Ga.) with 0.89 millimeter platinum-cured silicone tubing (Fisher Scientific, Suwanee, Ga.) and BST FC 71 flow cells (Biosurface Technologies, Corp, Bozeman, Mont.). […]
# P. gingivalis cells were harvested by centrifugation at 4000 rpm at 4° C. for 45 minutes, suspended in 20 ml of sterile 1×PBS, and introduced into the flow cell at a flow rate of 6 ml per hour for 2 hours to allow the bacteria to adhere and accumulate on the streptococcal substrate. […] P. gingivalis microcolonies bound to immobilized streptococci were quantified by confocal microscopy as described below.
# The bacteria were incubated with 0 and 0.845 μM peptide at ambient temperature for 30 minutes and introduced into the flow cell containing an existing streptococcal substrate for 2 hours at a flow rate of 6 ml per hour. Biofilm formation was analyzed by confocal microscopy as described below. Data was analyzed using GraphPad InStat3 software (GraphPad Software Co.) using a non-parametric analysis of variance (ANOVA). […]
compound,measurement,setting,value
LQAAPKKVQDLLKKANITVKGAFQLFS [BAR-XIV],inhibitory activity compared to BAR (in words),[1]; peptide 1.7 μM,significant decrease in inhibitory activity
same,restoration of inhibitory activity (in words),[1]; peptide 17 μM,did not show partial or full restoration
CC(C)C[C@H](NC(=O)[C@@H](O)[C@H](N)Cc1ccccc1)C(=O)O [bestatin],concentrations that prevent cleavage of BAR by P. gingivalis (in words),[2],mM range
"Cl.NCCc1ccc(S(=O)(=O)F)cc1 [AEBSF, 4-(2-Aminoethyl)benzenesulfonyl fluoride hydrochloride]",concentrations that prevent cleavage of BAR by P. gingivalis (in words),[2],mM range
"CC(C)C[C@H](NC(=O)[C@H]1O[C@@H]1C(=O)O)C(=O)NCCCCN=C(N)N (relative stereo) [E-64, N-(trans-epoxysuccinyl)-L-leucine 4 guanidinobutylamide]",concentrations that prevent cleavage of BAR by P. gingivalis (in words),[2],mM range
LEAAPKKVPGLLKKANITVKGAFQLFS [BAR-X],inhibition of biofilm formation,[1],~15%
LEAAPKKVQDLLKKARITIKGAFQLFS [BAR-II],α-helix content,[3],28%
same,biofilm inhibitory activity (in words),[1],more potent inhibitor of P. gingivalis adherence and biofilm development than BAR
same,fold difference in I50 / potency relative to BAR,[1]; I50 0.52 μM versus 1.25 μM,approximately 2.5 fold
same,IC50,"[1]; P. gingivalis pre-incubated with peptide, streptococcal substrate, read-out: I50 for inhibition of P. gingivalis adherence and biofilm formation",520 nM
same,inhibition of P. gingivalis microcolony formation,[1]; peptide 0.34 μM,25%
same,inhibition of P. gingivalis microcolony formation,[1]; peptide 0.85 μM,82%
"O=C([O-])CN(CCN(CC(=O)[O-])CC(=O)[O-])CC(=O)[O-].[Na+].[Na+].[Na+].[Na+] [EDTA, sodium ethylenediaminetetra-acetate]",concentrations that prevent cleavage of BAR by P. gingivalis (in words),[2],mM range
LEAAPKKVQDLLKKANITVKGAFQLFS [BAR],Kd,Mfa1,~900 nM
same,degradation by P. gingivalis 33277 (in words),"[4]; 5 μg BAR, wild type cells",immediate degradation
same,degradation by P. gingivalis culture supernatant (in words),"[4]; 5 μg peptide, 37° C., 0 to 60 minutes",more slowly degraded; also recorded: time dependent degradation
same,proteolytic cleavage by P. gingivalis culture extracts (in words),"[4]; 1 hour incubation, 10-20% Tris-Tricine gel",slowly degraded
same,relative density (R.D.) of remaining BAR peptide,"[4]; E8 whole cells, within 5 minutes (first value of 'R.D.=32.5 vs. 21.6')",32.5
same,relative density (R.D.) of remaining BAR peptide,"[4]; P. gingivalis SMF1 with rMfa1, T=5 minutes, loading control R.D.=61.07",47.3
same,relative density (R.D.) of remaining BAR peptide,"[4]; P. gingivalis SMF1 with rMfa1, T=30 minutes, loading control R.D.=61.07",8.2
same,relative density (R.D.) of remaining BAR peptide,"[4]; P. gingivalis SMF1 without rMfa1, T=5 minutes, loading control R.D.=61.07",−5.75
same,relative density (R.D.) of remaining BAR peptide,"[4]; P. gingivalis SMF1 without rMfa1, T=30 minutes, loading control R.D.=61.07",−20.32
same,relative density (R.D.) of remaining BAR peptide,"[4]; gingipain deficient P. gingivalis KDP128, T=5 minutes, loading control R.D.=115.85",96.23
same,relative density (R.D.) of remaining BAR peptide,"[4]; gingipain deficient P. gingivalis KDP128, T=10 minutes, loading control R.D.=115.85",115.85
same,"degradation by P. gingivalis E8 (lacks Arg-X gingipains), in words",[4]; intact cells,rapidly degraded; also recorded: immediate degradation
same,"degradation by P. gingivalis KDP128 (lacks Lys-X and Arg-X gingipains), in words",[4]; intact cells,Little degradation was observed after incubation for 10 minutes; also recorded: attenuated proteolytic activity against the peptide
same,"degradation by P. gingivalis KDP129 (lacks Lys-X gingipains), in words",[4]; intact cells,attenuated degradation; also recorded: Little degradation was observed
same,degradation by intact P. gingivalis cells in the presence of purified Mfa1 (in words),[4]; pre-incubation with Mfa1,little degradation occurred after 5 minutes; also recorded: protection from proteolytic degradation
same,"relative density (R.D.) of remaining BAR peptide, comparator","[4]; second value of 'R.D.=32.5 vs. 21.6', apparently wild type 33277, 5 minutes",21.6
same,inhibitory activity on biofilm formation,[5],~50%
same,inhibition of P. gingivalis microcolony formation,[1]; peptide 0.34 μM,3%
same,inhibition of P. gingivalis microcolony formation,[1]; peptide 0.85 μM,7%
same,inhibition rate of P. gingivalis/S. gordonii biofilm formation,[1]; peptide 1.7 μM,80%
same,inhibition of biofilm formation,[1],~75%
